Reference: article PMC5974244, “Tumour-associated missense mutations in the dMi-2 ATPase alters nucleosome remodelling properties in a mutation-specific manner” (Nature Communications, 2018)

What was measured:
[1] = target: T1, dMi-2 (Drosophila melanogaster, UniProt O97159, L1217P); assay: nitrocellulose filter binding with [gamma-32P]ATP; conditions: labelled compound; same 90 nM protein, 0.25 mM MgCl2, 26 °C; printed as L1215P (human CHD4 numbering)
T1 construct: gene Mi-2; FLAG-tagged dMi-2 (no truncation stated), baculovirus / Sf9 cells, anti-FLAG purified, FLAG peptide elution
T1 sequence (O97159 whole entry L1217P, the tested form may be a part): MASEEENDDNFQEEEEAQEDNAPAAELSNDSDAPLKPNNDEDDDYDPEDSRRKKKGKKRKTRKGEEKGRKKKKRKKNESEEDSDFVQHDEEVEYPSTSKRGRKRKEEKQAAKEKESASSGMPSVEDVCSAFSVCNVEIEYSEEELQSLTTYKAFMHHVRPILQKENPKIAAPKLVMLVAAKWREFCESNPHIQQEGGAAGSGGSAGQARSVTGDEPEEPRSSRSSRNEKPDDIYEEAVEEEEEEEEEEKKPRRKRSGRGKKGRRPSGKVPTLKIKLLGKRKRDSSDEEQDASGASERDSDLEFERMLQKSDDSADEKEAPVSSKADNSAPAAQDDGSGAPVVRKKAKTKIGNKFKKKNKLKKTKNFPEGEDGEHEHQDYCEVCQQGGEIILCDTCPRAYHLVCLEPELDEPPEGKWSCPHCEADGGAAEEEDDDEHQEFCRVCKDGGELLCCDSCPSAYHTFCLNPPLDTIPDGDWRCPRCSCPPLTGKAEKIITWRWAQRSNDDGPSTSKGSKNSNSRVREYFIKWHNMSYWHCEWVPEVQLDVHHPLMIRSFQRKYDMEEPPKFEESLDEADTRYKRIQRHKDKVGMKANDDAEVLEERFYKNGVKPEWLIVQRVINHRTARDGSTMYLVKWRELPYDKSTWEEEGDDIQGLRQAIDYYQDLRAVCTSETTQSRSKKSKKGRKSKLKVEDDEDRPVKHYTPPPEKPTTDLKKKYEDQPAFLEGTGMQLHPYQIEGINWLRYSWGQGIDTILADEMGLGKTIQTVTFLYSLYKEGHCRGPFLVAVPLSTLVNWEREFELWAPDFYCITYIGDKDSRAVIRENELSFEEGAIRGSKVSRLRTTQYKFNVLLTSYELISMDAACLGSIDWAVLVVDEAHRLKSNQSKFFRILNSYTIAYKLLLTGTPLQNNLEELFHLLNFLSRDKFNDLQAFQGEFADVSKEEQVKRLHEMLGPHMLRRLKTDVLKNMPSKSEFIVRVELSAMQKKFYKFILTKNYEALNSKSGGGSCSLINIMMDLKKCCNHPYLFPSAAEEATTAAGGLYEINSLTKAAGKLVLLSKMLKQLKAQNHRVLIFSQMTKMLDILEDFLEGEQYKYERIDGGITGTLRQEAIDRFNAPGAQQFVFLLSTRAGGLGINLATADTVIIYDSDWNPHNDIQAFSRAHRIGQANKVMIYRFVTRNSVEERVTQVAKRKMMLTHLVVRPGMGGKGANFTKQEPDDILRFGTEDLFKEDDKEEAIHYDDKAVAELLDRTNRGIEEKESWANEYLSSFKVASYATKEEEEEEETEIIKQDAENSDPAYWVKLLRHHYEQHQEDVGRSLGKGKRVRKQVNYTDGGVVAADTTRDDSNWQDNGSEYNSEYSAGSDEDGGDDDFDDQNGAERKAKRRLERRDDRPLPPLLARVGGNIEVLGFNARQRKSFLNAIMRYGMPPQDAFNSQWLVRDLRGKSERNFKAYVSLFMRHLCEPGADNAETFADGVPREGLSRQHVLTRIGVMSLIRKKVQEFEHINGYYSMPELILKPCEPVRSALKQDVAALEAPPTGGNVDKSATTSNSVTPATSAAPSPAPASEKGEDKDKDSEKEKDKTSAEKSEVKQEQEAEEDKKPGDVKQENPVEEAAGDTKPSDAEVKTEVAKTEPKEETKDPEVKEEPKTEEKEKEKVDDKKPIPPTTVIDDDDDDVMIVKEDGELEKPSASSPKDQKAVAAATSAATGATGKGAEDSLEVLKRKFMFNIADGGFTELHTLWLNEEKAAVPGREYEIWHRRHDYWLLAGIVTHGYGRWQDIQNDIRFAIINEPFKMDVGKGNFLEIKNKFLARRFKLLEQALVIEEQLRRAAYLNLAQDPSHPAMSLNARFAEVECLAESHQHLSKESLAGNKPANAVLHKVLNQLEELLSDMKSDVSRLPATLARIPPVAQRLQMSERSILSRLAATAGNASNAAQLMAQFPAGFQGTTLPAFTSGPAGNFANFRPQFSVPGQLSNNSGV

[2] = target: T2, dMi-2 (Drosophila melanogaster, UniProt O97159); assay: ATPase assay, TLC of [gamma-32P]ATP; assay type: biochemical; conditions: labelled compound as tracer; 20 µM ATP, saturating polynucleosomes, 26 °C, 30 min
T2 construct: gene Mi-2; FLAG-tagged dMi-2 (no truncation stated), baculovirus / Sf9 cells, anti-FLAG purified, FLAG peptide elution
T2 sequence (O97159 whole entry, the tested form may be a part): as the sequence (O97159 whole entry L1217P, the tested form may be a part) above, with P1217L counted along it

[3] = target: T3, dMi-2 (Drosophila melanogaster, UniProt O97159, H1198Y); assay: nitrocellulose filter binding with [gamma-32P]ATP; conditions: labelled compound; same 90 nM protein, 0.25 mM MgCl2, 26 °C; printed as H1196Y (human CHD4 numbering)
T3 construct: gene Mi-2; FLAG-tagged dMi-2 (no truncation stated), baculovirus / Sf9 cells, anti-FLAG purified, FLAG peptide elution
T3 sequence (O97159 whole entry H1198Y, the tested form may be a part): as the sequence (O97159 whole entry L1217P, the tested form may be a part) above, with H1198Y, P1217L counted along it

[4] = target: T4, dMi-2 (Drosophila melanogaster, UniProt O97159, V538F); assay: nitrocellulose filter binding with [gamma-32P]ATP; conditions: labelled compound; same 90 nM protein, 0.25 mM MgCl2, 26 °C; printed as V558F (human CHD4 numbering)
T4 construct: gene Mi-2; FLAG-tagged dMi-2 (no truncation stated), baculovirus / Sf9 cells, anti-FLAG purified, FLAG peptide elution
T4 sequence (O97159 whole entry V538F, the tested form may be a part): as the sequence (O97159 whole entry L1217P, the tested form may be a part) above, with V538F, P1217L counted along it

[5] = target: T5, dMi-2 (Drosophila melanogaster, UniProt O97159, R552Q); assay: nitrocellulose filter binding with [gamma-32P]ATP; conditions: labelled compound; same 90 nM protein, 0.25 mM MgCl2, 26 °C; printed as R572Q (human CHD4 numbering; also as R572Y in places, primer encodes Q)
T5 construct: gene Mi-2; FLAG-tagged dMi-2 (no truncation stated), baculovirus / Sf9 cells, anti-FLAG purified, FLAG peptide elution
T5 sequence (O97159 whole entry R552Q, the tested form may be a part): as the sequence (O97159 whole entry L1217P, the tested form may be a part) above, with R552Q, P1217L counted along it

[6] = target: T6, dMi-2 (Drosophila melanogaster, UniProt O97159, L914V); assay: nitrocellulose filter binding with [gamma-32P]ATP; conditions: labelled compound; same 90 nM protein, 0.25 mM MgCl2, 26 °C; printed as L912V (human CHD4 numbering)
T6 construct: gene Mi-2; FLAG-tagged dMi-2 (no truncation stated), baculovirus / Sf9 cells, anti-FLAG purified, FLAG peptide elution
T6 sequence (O97159 whole entry L914V, the tested form may be a part): as the sequence (O97159 whole entry L1217P, the tested form may be a part) above, with L914V, P1217L counted along it

[7] = target: T7, dMi-2 (Drosophila melanogaster, UniProt O97159, R1164Q); assay: nitrocellulose filter binding with [gamma-32P]ATP; conditions: labelled compound; same 90 nM protein, 0.25 mM MgCl2, 26 °C; printed as R1162Q (human CHD4 numbering)
T7 construct: gene Mi-2; FLAG-tagged dMi-2 (no truncation stated), baculovirus / Sf9 cells, anti-FLAG purified, FLAG peptide elution
T7 sequence (O97159 whole entry R1164Q, the tested form may be a part): as the sequence (O97159 whole entry L1217P, the tested form may be a part) above, with R1164Q, P1217L counted along it

[8] = target: T2, dMi-2; assay: nitrocellulose filter binding with [gamma-32P]ATP; conditions: labelled compound; 90 nM protein, 0.25 mM MgCl2, 100 mM KCl, 20 mM HEPES, 26 °C; competition by cold ATP
[9] = target: T8, dMi-2 (Drosophila melanogaster, UniProt O97159, C452Y); assay: nitrocellulose filter binding with [gamma-32P]ATP; conditions: labelled compound; same 90 nM protein, 0.25 mM MgCl2, 26 °C; printed as C464Y (human CHD4 numbering)
T8 construct: gene Mi-2; FLAG-tagged dMi-2 (no truncation stated), baculovirus / Sf9 cells, anti-FLAG purified, FLAG peptide elution
T8 sequence (O97159 whole entry C452Y, the tested form may be a part): as the sequence (O97159 whole entry L1217P, the tested form may be a part) above, with C452Y, P1217L counted along it

[10] = target: T9, dMi-2 (Drosophila melanogaster, UniProt O97159, H1153R); assay: nitrocellulose filter binding with [gamma-32P]ATP; conditions: labelled compound; same 90 nM protein, 0.25 mM MgCl2, 26 °C; printed as H1151R (human CHD4 numbering)
T9 construct: gene Mi-2; FLAG-tagged dMi-2 (no truncation stated), baculovirus / Sf9 cells, anti-FLAG purified, FLAG peptide elution
T9 sequence (O97159 whole entry H1153R, the tested form may be a part): as the sequence (O97159 whole entry L1217P, the tested form may be a part) above, with H1153R, P1217L counted along it

% of WT binding activity [5]: 32%
Compound: Nc1ncnc2c1ncn2[C@@H]1O[C@H](COP(=O)(O)OP(=O)(O)OP(=O)(O)O)[C@@H](O)[C@H]1O [ATP]
% of WT ATP binding activity [1]: Most dMi-2 mutants displayed robust ATP binding activity
ATPase assay, TLC of [gamma-32P]ATP [2]: We performed ATPase assays in the absence or presence of saturating amounts of salt dialysis-assembled
% of WT ATP binding activity [3]: Most dMi-2 mutants displayed robust ATP binding activity
% of WT ATP binding activity [4]: Most dMi-2 mutants displayed robust ATP binding activity
% of WT ATP binding activity [6]: Most dMi-2 mutants displayed robust ATP binding activity
% of WT ATP binding activity [7]: Most dMi-2 mutants displayed robust ATP binding activity
nitrocellulose filter binding with [gamma-32P]ATP [8]: Binding of WT dMi-2 to radioactively labelled ATP was efficiently competed by an excess of
% of WT ATP binding activity [9]: Most dMi-2 mutants displayed robust ATP binding activity
% of WT ATP binding activity [10]: Most dMi-2 mutants displayed robust ATP binding activity
